Where “and” joins values, the source holds several entries; their conditions need not be identical. Equal entries are not always repeated.
Legend:
MIF [1] = target: T1, MIF (Homo sapiens, UniProt P14174); assay: MIF degradation in A549 cells, cell lysate-based ELISA; set-up: endogenous in cells; host or cells: A549 (ATCC CCL-185); details: A549 cells; for degradation [%] 2 μM: vs DMSO, mean±SD n=3
T1 sequence (P14174 2-115 limits assumed): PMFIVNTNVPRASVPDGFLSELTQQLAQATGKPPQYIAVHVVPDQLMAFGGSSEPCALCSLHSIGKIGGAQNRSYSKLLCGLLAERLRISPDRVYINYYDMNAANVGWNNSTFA
Experimental: In addition, A549 cells have been successfully used for assessing activity of cereblon ligand‐based PROTACs previously.[42] Therefore, A549 is a suitable cell line for evaluating the effect of our putative MIF‐directed PROTACs MD1 to MD12 on MIF protein levels. The reduction in MIF levels were monitored in A549 cells that were treated with two different PROTAC concentrations (20 and 2 μM) for 12 h in order to estimate the dose dependency, which is important for PROTACs because of the Hook effect.[35] The MIF levels in cell lysates were analyzed using an enzyme‐linked immunosorbent assay (ELISA).
S3. ELISA screening of MIF protein level on MIF-directed PROTACs
Cell culture. Human A549 lung cancer cells (ATCCCCL-185) or HEK293 kidney […]
containing 10% (v/v) fetal bovine serum (FBS), 100 U/mL penicillin/streptomycin […]
ELISA. 7×10^5 A549 cells per well were plated in 6-well plates. The next day, cells were treated with a solution of compounds or the vehicle for 12 h. Subsequently, the culture medium was removed and cells were washed twice with cold PBS and collected after trypsin (0.5 mL) degestion. Cells were then lyzed in lysis buffer (150 mM NaCl, 50 mM Hepes pH 7.5, 5 mM EDTA, 0.1% (w/v) NP40) containing protease inhibitor cocktail (Roche, #11836153001) and resuspended vigourously. The supernatant was collected after spinning down at 16 000g at 4 °C for 30 min. The total protein concentration was determined with PierceTM BCA protein assay kit ( ThermoFisher , #23225). The protein concentration was normalized between samples. The relative MIF levels from 1µg total protein were determined by ELISA with the human MIF DuoSet ELISA kit according to the instructions of the manufacturer (R&D systems, #DY289).
Figure S1. Screening of compounds for MIF degradation activity by cell lysate -based ELISA.
A549 cells were treated with compounds at (A) 20 or (B) 2 µM for 12 h. Data was normalized […]
(1 picture or pasted object on this page, not shown here)

MIF [2] = target: T1, MIF; assay: MIF degradation in HEK293 cells, western-blot; format: cell-based; set-up: endogenous in cells; details: 200 nM
MIF [3] = target: T1, MIF; assay: MIF immunofluorescence staining, confocal microscopy; format: cell-based; set-up: endogenous in cells; host or cells: A549 (ATCC CCL-185); details: A549 cells, 1 μM, 12 hours
Text: Since PROTACs are relatively large heterobifunctional molecules, the efficacy of these compounds may be limited by poor cell permeability.[47] In order to estimate the cellular uptake of PROTAC MD13, the intrinsic fluorescence properties of the pomalidomide part of MD13 were employed for visualization of its subcellular localization. […] In parallel, the subcellular localization of MIF and its decrease in situ upon MD13 treatment was visualized by confocal fluorescence microscopy using a fluorescent secondary antibody.
S5. Subcellular colocalization study
To visualize the intracellular location of MD13 and MIF protein, immunofluorescence staining was applied. A549 cells were seeded on glass coverslips in a 6-well plate at a density of 1x10^5 cells per well. After overnight incubation, cells were treated with 1 µM MD13 for 1 hour to study the internalization of MD13 or 12 hours to study the degradation of MIF protein.
The cells with 1-hour treatment were fixed with methanol before coverslips were mounted onto slides with anti-fading mounting medium with DAPI stain (Invitrogen, Waltham, MA. USA).
To visualize MIF protein, cells after 12-hour treatment were fixed with methanol and then unspecific binding was blocked with blocking buffer (1% BSA, 22.52 mg/mL glycine in 0.1%PBST). […]
USA). […] The pictures were acquired using a Leica SP8 confocal laser scanning microscope and analyzed by ImageJ. […]

Compound | degradation [%] 2 μM (MIF [1]; 12 h) | DC50 (MIF [1]; 12 h, ELISA, read-out: DC50) | Hook effect (MIF [1]; at 20 μM, ELISA and western-blot) | MIF degradation (MIF [2]) | MIF depletion in situ (MIF [3])
O=C1CCC(N2C(=O)c3cccc(NCCCCCCCC(=O)Nc4ccc(N5Cc6ccc(O)cc6OC5=O)cc4)c3C2=O)C(=O)N1 (stereo not drawn) [MD13] | 91% and 91±5% | ~200 nM | Hook effect | more than 90% | significantly depleted MIF
CN1C(=O)CCC(N2C(=O)c3cccc(NCCCCCCCC(=O)Nc4ccc(N5Cc6ccc(O)cc6OC5=O)cc4)c3C2=O)C1=O (stereo not drawn) [MD15] | not capable of inducing MIF degradation and n.s. | – | – | – | –
